Results: US20170369444A1, “INHIBITORS OF HISTONE DEMETHYLASES” (Gilead Sciences, Inc., priority 2014, published 2017)

Key:
Assay type in all cases: biochemical
KDM2B (FBXL10) = target: T1, KDM2B (FBXL10) (Homo sapiens, UniProt Q8NHM5); assay: Histone lysine demethylase AlphaLISA assay, KDM2B; conditions: in vitro enzyme, read-out: KDM2B IC50 (HDME Inhibition)
T1 construct: 1-650; purchased BPS Bioscience, US; host or cells: Bac (baculovirus/insect cells)
T1 sequence (Q8NHM5 1-650): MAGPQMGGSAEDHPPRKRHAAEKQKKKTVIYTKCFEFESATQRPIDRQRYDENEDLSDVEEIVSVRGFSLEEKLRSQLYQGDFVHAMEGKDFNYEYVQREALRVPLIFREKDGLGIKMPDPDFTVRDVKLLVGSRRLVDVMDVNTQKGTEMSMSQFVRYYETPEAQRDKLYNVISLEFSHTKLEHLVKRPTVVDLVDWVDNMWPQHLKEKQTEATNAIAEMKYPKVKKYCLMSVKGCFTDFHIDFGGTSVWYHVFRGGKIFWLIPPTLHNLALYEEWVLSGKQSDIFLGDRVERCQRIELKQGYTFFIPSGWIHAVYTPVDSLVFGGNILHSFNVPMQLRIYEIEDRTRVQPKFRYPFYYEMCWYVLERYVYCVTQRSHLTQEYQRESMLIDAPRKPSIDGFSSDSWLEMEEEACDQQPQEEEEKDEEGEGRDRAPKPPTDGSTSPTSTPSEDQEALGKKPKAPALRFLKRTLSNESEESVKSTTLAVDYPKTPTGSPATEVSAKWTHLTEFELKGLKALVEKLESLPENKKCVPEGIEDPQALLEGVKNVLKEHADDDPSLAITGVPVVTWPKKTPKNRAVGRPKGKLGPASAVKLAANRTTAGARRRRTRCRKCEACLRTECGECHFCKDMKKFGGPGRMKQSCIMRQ

KDM4C (JMJD2C) = target: T2, KDM4C (JMJD2C) (Homo sapiens, UniProt Q9H3R0); assay: Histone lysine demethylase AlphaLISA assay, KDM4C; conditions: in vitro enzyme, read-out: KDM4C IC50 (HDME Inhibition)
T2 construct: 1-349; host or cells: E. coli
T2 sequence (Q9H3R0 1-349): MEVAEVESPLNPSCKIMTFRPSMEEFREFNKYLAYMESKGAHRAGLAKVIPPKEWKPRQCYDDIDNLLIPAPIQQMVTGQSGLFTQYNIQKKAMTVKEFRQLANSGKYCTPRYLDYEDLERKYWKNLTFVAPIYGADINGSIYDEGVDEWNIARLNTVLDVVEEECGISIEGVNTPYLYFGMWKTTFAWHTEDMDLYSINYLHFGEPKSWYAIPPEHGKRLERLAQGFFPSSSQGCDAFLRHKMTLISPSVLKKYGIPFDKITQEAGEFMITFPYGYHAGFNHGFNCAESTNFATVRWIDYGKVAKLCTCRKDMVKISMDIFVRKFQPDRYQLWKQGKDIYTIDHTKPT
Procedure: Histone lysine demethylase AlphaLISA assays are performed to determine IC50 values. […] Assays are performed analogously to the protocol described by PerkinElmer (Roy et al. PerkinElmer Technical Note: AlphaLISA #12, April 2011).
Assays are performed analogously to the protocol described by PerkinElmer (Roy et al. PerkinElmer Technical Note: AlphaLISA #12, April 2011).
Enzymes (final assay concentration 0.1-2.5 nM) are dissolved in enzyme buffer and incubated for 10 min before 5 μL is added to 5 μL 3% DMSO solutions of compounds in enzyme buffer, incubated for another 10 minutes, before 5 μL substrate solution is added and the reaction mixture is incubated at room temperature. 10 μL acceptor beads, suspended Epigenetic Buffer (Perkin Elmer AL008) from stock, are added and the suspension is incubated in the dark at room temperature, before 10 μL suspension of streptavidin donor beads (Perkin Elmer 6760002) in Epigenetic Buffer is added. After incubation at room temperature in the dark the plates are read.
Substrate solution: Substrate (final assay concentration 50-200 nM), 50 mM Hepes (pH 7.4-8.0), 0.003% Tween-20, 0.1% BS, 25 μM L-Asc, 10 μM α-KG. Enzyme Buffer: 50 mM Hepes (pH 7.4-8.0), 0.003% Tween-20, 0.1% BSA; 5 μM (NH4)2Fe(SO4)2

KDM5B (PLU-1) = target: T3, KDM5B (PLU-1) (Homo sapiens, UniProt Q9UGL1); assay: Histone lysine demethylase AlphaLISA assay, KDM5B; conditions: in vitro enzyme, read-out: KDM5B IC50 (HDME Inhibition)
T3 construct: 1-809; host or cells: E. coli
T3 sequence (Q9UGL1 1-809): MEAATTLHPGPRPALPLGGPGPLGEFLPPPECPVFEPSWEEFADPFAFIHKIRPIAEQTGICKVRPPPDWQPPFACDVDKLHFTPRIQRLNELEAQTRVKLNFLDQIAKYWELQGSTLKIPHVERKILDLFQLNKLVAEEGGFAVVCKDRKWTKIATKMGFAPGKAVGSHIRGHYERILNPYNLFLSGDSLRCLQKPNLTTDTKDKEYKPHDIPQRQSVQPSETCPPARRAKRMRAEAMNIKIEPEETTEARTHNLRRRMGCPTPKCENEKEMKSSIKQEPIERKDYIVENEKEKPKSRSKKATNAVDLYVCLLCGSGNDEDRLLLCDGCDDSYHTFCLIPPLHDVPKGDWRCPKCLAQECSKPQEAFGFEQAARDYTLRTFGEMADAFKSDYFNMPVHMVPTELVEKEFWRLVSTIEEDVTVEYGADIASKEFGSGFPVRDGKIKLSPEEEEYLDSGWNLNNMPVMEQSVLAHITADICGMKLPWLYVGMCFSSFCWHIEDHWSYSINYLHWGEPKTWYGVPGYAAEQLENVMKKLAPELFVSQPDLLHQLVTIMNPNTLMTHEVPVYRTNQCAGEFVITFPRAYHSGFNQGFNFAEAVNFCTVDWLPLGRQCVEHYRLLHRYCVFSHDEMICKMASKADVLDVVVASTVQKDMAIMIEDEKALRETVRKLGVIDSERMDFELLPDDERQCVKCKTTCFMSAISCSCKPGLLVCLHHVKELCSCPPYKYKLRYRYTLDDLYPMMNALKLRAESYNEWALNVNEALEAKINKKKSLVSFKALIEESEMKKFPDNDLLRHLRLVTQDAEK

PHF8 (KDM7) = PHF8 (KDM7) (Homo sapiens, UniProt Q9UPP1); assay: Histone lysine demethylase AlphaLISA assay, PHF8; conditions: in vitro enzyme, read-out: PHF8 IC50 (HDME Inhibition)
Sequence of PHF8 (KDM7) (Q9UPP1 whole entry): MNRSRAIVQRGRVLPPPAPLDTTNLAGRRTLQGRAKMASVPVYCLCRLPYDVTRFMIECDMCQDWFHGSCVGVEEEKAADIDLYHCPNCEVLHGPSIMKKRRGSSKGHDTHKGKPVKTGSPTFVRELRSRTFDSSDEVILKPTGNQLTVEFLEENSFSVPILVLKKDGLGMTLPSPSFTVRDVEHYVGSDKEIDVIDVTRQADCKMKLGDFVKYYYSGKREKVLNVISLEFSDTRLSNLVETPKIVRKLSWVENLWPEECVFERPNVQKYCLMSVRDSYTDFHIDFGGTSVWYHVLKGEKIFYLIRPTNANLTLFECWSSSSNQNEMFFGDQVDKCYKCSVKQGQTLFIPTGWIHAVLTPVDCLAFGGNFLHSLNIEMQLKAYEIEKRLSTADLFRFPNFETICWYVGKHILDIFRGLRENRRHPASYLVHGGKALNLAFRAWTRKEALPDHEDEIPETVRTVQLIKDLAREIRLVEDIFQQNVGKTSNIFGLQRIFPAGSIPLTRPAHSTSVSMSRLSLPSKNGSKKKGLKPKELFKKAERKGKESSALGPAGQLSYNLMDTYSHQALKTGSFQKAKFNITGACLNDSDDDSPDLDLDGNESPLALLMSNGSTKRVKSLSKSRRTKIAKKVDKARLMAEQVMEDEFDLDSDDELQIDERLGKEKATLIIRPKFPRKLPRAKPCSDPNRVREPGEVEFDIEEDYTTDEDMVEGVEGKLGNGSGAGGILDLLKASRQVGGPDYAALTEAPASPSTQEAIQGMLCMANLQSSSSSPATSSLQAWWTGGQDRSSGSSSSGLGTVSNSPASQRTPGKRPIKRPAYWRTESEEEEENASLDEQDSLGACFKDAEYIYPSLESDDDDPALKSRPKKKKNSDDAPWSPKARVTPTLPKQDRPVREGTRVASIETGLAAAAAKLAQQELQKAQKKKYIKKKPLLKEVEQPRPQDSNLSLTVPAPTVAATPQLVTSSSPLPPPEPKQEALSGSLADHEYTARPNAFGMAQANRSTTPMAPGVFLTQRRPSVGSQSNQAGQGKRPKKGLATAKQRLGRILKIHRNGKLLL

KDM6A (UTX) = target: T4, KDM6A (UTX) (Homo sapiens, UniProt O15550); assay: Histone lysine demethylase AlphaLISA assay, KDM6A; conditions: in vitro enzyme, read-out: KDM6A IC50 (HDME Inhibition)
T4 construct: 919-1401; host or cells: E. coli
T4 sequence (O15550 919-1401): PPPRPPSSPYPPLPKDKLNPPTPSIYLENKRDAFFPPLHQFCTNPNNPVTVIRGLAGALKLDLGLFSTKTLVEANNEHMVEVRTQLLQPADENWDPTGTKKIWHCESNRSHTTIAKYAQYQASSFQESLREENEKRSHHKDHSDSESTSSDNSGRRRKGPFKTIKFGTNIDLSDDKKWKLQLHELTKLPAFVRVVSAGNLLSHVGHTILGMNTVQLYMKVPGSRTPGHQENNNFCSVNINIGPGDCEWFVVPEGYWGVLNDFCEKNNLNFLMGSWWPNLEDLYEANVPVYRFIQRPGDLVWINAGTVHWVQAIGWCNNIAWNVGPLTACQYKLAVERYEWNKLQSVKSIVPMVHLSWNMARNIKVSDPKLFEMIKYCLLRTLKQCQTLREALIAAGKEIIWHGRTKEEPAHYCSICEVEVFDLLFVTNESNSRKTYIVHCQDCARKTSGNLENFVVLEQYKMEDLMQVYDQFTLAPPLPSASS

SMILES	IC50 (KDM2B (FBXL10)) [nM]	IC50 (KDM4C (JMJD2C)) [nM]	IC50 (KDM5B (PLU-1)) [nM]	IC50 (PHF8 (KDM7)) [nM]	IC50 (KDM6A (UTX)) [nM]
O=C(O)c1ccnc(CN2CCCC[C@@H]2CC(=O)N2CCCCC2)c1 [Compound 72, 2-{[(2R)-2-[2-oxo-2-(piperidin-1-yl)ethyl]piperidin-1-yl]methyl}pyridine-4-carboxylic acid]		> 2500	> 2500		> 2500
O=C(O)c1ccnc(CNC2CCCc3cccnc32)c1 (stereo not shown) [Compound 94, 2-{[(5,6,7,8-tetrahydroquinolin-8-yl)amino]methyl} pyridine-4-carboxylic acid]		> 2500	> 2500		> 2500
C=CCN(CC=C)C(=O)[C@H](CCCCN(C)C(C)=O)NCc1cc(C(=O)O)ccn1 [Compound 21, 2-({[(1S)-1-[bis(prop-2-en-1-yl)carbamoyl]-5-(N-methylacetamido)pentyl]amino}methyl)pyri-dine-4-carboxylic acid]		> 2500	250 to 2500		> 2500
CC(N[C@@H](C)C(=O)NCc1ccncc1)c1cc(C(=O)O)ccn1 (stereo partly drawn) [Compound 15, 2-(1-{[(1S)-1-[(pyridin-4-ylmethyl)carbamoyl]ethyl]amino}ethyl)pyri-dine-4-carboxylic acid]		> 2500	> 2500		> 2500
CSCC(NCC(=O)N1CCCCC1)c1cc(C(=O)O)ccn1 (stereo not shown) [Compound 42, 2-[2-(methylsulfanyl)-1-{[2-oxo-2-(piperidin-1-yl)ethyl]amino}ethyl] pyridine-4-carboxylic acid]		> 2500	> 2500		> 2500
Cc1cn2c(n1)CCN(Cc1cc(C(=O)O)ccn1)CCC2 [Compound 67, 2-({2-methyl-5H,6H,7H,8H,9H,10H-imidazo[1,2-a][1,5]diazocin-8-yl}methyl)pyridine-4-carboxylic acid]		> 2500	> 2500		> 2500
CC(C)C[C@H](CO)NC(C)c1cc(C(=O)O)ccn1 (stereo partly drawn) [Compound 33, 2-(1-{[(2R)-1-hydroxy-4-methylpentan-2-yl]amino}ethyl)pyridine-4-carboxylic acid]		> 2500	250 to 2500		> 2500
O=C(O)c1ccnc(CNCc2nccn2C/C=C/c2ccccc2)c1 [Compound 13, 2-{[({1-[(2E)-3-phenylprop-2-en-1-yl]-1H-imidazol-2-yl}methyl)amino]methyl}pyridine-4-carboxylic acid]		> 2500	< 250		> 2500
CCNC(=O)C[C@@H]1CCCCN1Cc1cc(C(=O)O)ccn1 [Compound 71, 2-{[(2S)-2-[(ethylcarbamoyl)methyl]piperidin-1-yl]methyl}pyridine-4-carboxylic acid]		> 2500	> 2500		> 2500
C=CCN(CC=C)C(=O)[C@H](CC(=O)NCCCN(C)C)NCc1cc(C(=O)O)ccn1 [Compound 10, 2-({[(1S)-1-[bis(prop-2-en-1-yl)carbamoyl]-2-{[3-(dimethylamino)propyl]carbamoyl}ethyl]amino}methyl)pyridine-4-carboxylic acid]	> 2500	> 2500	< 250		
C=CCN(CC=C)C(=O)[C@@H](CCCCN(CCC)C(=O)OC(C)(C)C)NCc1cc(C(=O)O)ccn1 [Compound 4, 2-({[(1R)-1-[bis(prop-2-en-1-yl)carbamoyl]-5-{[(tert-butoxy)carbonyl](propyl)amino}pentyl]amino}methyl)pyridine-4-carboxylic acid]	250 to 2500	> 2500	> 2500		

The remaining lines, values ahead:

IC50 (KDM2B (FBXL10)) [nM]	IC50 (KDM4C (JMJD2C)) [nM]	IC50 (KDM5B (PLU-1)) [nM]	IC50 (PHF8 (KDM7)) [nM]	IC50 (KDM6A (UTX)) [nM]	SMILES
< 250	250 to 2500	< 250			COc1ccnc2c1CCC2NCc1cc(C(=O)O)ccn1 (stereo not shown) [Compound 101, 2-[({4-methoxy-5H,6H,7H-cyclopenta[b]pyridin-7-yl}amino)methyl]pyri-dine-4-carboxylic acid]
	250 to 2500		> 2500	> 2500	O=C(O)c1ccnc(CN2CCCn3ccnc3C2)c1 [Compound 53, 2-{5H,6H,7H,8H,9H-imidazo[1,2-a][1,4]diazepin-8-ylmethyl}pyridine-4-carboxylic acid]
250 to 2500	250 to 2500	250 to 2500			CC(NCC(=O)N1CCCCC1)c1cc(C(=O)O)ccn1 (stereo not shown) [Compound 48, 2-(1-{[2-oxo-2-(piperidin-1-yl)ethyl]amino}ethyl) pyridine-4-carboxylic acid]
	< 250	< 250		> 2500	O=C(O)c1cnnc(CNCC(=O)N2CCCCC2)c1 [Compound 26, 6-({[2-oxo-2-(piperidin-1-yl)ethyl]amino}methyl) pyridazine-4-carboxylic acid]
	< 250	< 250		250 to 2500	COc1ccc([C@@H](C)N2CC[C@H](CNCc3cc(C(=O)O)ccn3)C2=O)cc1 [Compound 79, 2-[({[(3R)-1-[(1R)-1-(4-methoxyphenyl)ethyl]-2-oxopyrrolidin-3-yl]methyl}amino)methyl]pyridine-4-carboxylic acid]
250 to 2500	250 to 2500	250 to 2500			CC(NCc1nccs1)c1cc(C(=O)O)ccn1 (stereo not shown) [Compound 41, 2-{1-[(1,3-thiazol-2-ylmethyl)amino]ethyl} pyridine-4-carboxylic acid]
	< 250		250 to 2500	> 2500	O=C(O)c1ccnc(CN2CCCCn3ccnc3C2)c1 [Compound 51, 2-{5H,6H,7H,8H,9H,10H-imidazo[1,2-a][1,4]diazocin-9-ylmethyl}pyridine-4-carboxylic acid]
	250 to 2500	< 250	250 to 2500	> 2500	CCN1CCC[C@@H](CNCc2cc(C(=O)O)ccn2)C1=O [Compound 104, 2-[({[(3S)-1-ethyl-2-oxopiperidin-3-yl]methyl}amino)methyl]pyridine-4-carboxylic acid]
